# Experimental data taken from patent US20050014268A1, “Genetic transformation using a PARP inhibitor” (Bayer BioScience NV, priority 1995, published 2005).
# What was measured:
# Type in all cases: cell-based
# [1] = system: Hypocotyl explants of Brassica napus; assay: Agrobacterium mediated transformation of oilseed rape hypocotyl explants with pTHW107, niacinamide for 4 days prior to infection
# Method: (§1) Hypocotyl explants of Brassica napus were obtained, cultured and transformed essentially as described by De Block et al, 1989, Plant Physiol. 914:694-701 except for the following modifications: • hypocotyl explants were precultured for 3 days on A2 medium (MS, 0.5 g/l Mes (pH 5.7), 1.2% glucose, 0.5% agarose, 1 mg/l 2,4-D, 0.25 mg/l naphthalene acetic acid (NAA), 1 mg/l 6-benzylaminopurine (BAP)), and then transferred to the A2 medium with or without niacinamide for another 4 days. • infection medium A3 was MS, 0.5 g/l Mes (pH 5.7), 1.2% glucose, 0.1 mg/l NAA, 0.75 mg/l BAP, 0.01 mg/l giberellinic acid (GA3) • selection medium A5 was 0.5 g/l Mes (pH 5.7), 1.2% glucose, 40 mg/l adenine.SO4, 0.5 g/l polyvinyl-polypyrrolidone (PVP), 0.5% agarose, 0.1 mg/l NAA, 0.75 mg/l BAP, 0.01 mg/l GA3, 250 mg/l carbenicillin, 250 mg/l triacillin, 5 mg/l AgNO3. • regeneration medium A6 was MS, 0.5 g/l Mes (pH 5.7), 2% sucrose, 40 mg/l adenine.SO4, 0.5 g/l PVP, 0.5% agarose, 0.0025 mg/l BAP, 250 mg/l triacillin. • healthy shoots were transferred to 1 liter vessels containing rooting medium which was either A8 or A9; A8 consists of 100-130 ml half concentrated MS, 1% sucrose (pH 5.0), 1 mg/l isobutyric acid (IBA), 100 mg/l triacillin added to 300 ml perlite (final pH 6.2); A9 consists of half concentrated MS, 1.5% sucrose (pH 5.8) solidified with agar (0.6%)
# Hypocotyl explants (with or without niacinamide treatment) were infected with Agrobacterium tumefaciens strain C58C1Rif carrying T-DNA vector pTHW107 and a helper Ti-plasmid pMP90 (Koncz and Schell, 1986, Mol.Gen.Genet. 204:383-396)(or a derivative thereof).
# Plasmid pTHW107 is a vector carrying a T-DNA comprising the following chimeric genes: • PTA29-barnase-3′g7 • PSSU-bar-3′nos • in which PTA29 is the promoter of the TA29 gene of tobacco (EP 344029) and PSSU is the promoter of the gene of Arabidopsis thaliana encoding the small subunit of Rubisco. The complete sequence of the T-DNA of pTHW107 is presented in SEQ ID No 1.
# Where required niacinamide (250 mg/l) was added to the media for the last 4 days prior to infection with Agrobacterium. […] Five plants regenerated from the calli obtained by transformation including niacinamide and five plants regenerated from the calli obtained by conventional transformation without niacinamide inclusion, were analyzed by Southern hybridization to determine the copy number of the transgenes, and were further analyzed for reproductive phenotype.
# cultured cells = assay: Optimal concentration of PARP inhibitor in the culture medium; details: i.e. about 2 mM; incubation not longer than 14 days
# Method: The concentration of the PARP inhibitor in the medium is also believed to have an effect on the inhibition of PARP, which varies depending on the nature of the cells (species, tissue explant, general culture conditions, etc.) However, within certain concentration ranges, the effect is minimal, especially when the cultured cells are not incubated for longer than 14 days. The optimal concentration range of PARP inhibitor in the medium may vary depending on the species from which the tissue, cell or cell culture is derived, but 250 mg/l (about 2 mM) is believed to be a suitable concentration for many purposes (e.g. for use with material derived from wheat). However, when nicotinamide is used in combination with plant material derived from rice, the concentration of nicotinamide should preferably be between 500 mg/l (about 4 mM) and 1000 mg/l (approx. 8 mM). On the other hand, when nicotinamide is used in combination with plant material derived from corn, the concentration of nicotinamide should preferably be 100 mg/l. […] The optimal concentration will depend on the nature of the specific PARP inhibitor used, particularly on its strength of inhibition (as measured by its Ki and/or by its percentage inhibition of PARP under standard conditions—Sims et al, supra). […]
# [2] = system: Brassica napus hypocotyl explants; assay: Tissue culture of Brassica napus hypocotyl explants on A5 medium containing niacinamide
# Method: as §1, with “and then transferred to the A2 medium with or without niacinamide for another 4 days. • infection medium A3 was” left out
# [3] = 250 mg/l niacinamide for the last 4 days prior to infection
# [4] = Before 250, regenerated plants Id. No. 1-5
# [5] = after 4-5 days of incubation with niacinamide
smiles,measurement,setting,value
NC(=O)c1cccnc1 [niacinamide],copy number in plants regenerated from transformed calli,[1]; [3],low copy number
same,variation in the expression profile of the transgenes,[1]; [3],less variation
same,Phenotype of the F1-progeny (vegetative/reproductive),"[1]; Before 250, pollinated with untransformed N90-740, phosphinotricin resistant F1-progeny",normal/sterile
same,Reproductive phenotype (male sterility),[1]; [4],sterile
same,Vegetative phenotype,[1]; [4],normal
same,optimal concentration in the culture medium,cultured cells,approximately 250 mg/l
same,anthocyanin production in tissue culture,[2]; A5 medium containing 250 mg/l niacinamide,no anthocyanin was produced
same,concentration of dehydroascorbate in the explants,[2]; [5],drastically decreased
same,concentration of hydroxyl free radical in the explants,[2]; [5],drastically decreased
same,percentage of cultured cells in G2 phase of the cell cycle,"[2]; after a 4 day incubation in niacinamide containing medium, considerably increased",up to 45 % of all cells in the culture
